Measurements taken from article PMC10411619 (Chemical Science, 2023).

Target: cyt P460 (Nitrosomonas europaea, UniProt Q50927)
Assay: biochemical

Sequence of cyt P460 (Q50927 27-198): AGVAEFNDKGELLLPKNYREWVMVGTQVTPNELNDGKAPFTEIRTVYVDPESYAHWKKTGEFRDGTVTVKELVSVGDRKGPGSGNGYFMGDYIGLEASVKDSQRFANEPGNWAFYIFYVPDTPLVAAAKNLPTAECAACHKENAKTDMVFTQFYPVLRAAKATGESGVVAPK

- Kd: 30 ± 0.7 mM
SMILES: NO [NH2OH]
